This is an account of results in patent US20260102387A1, “IMMUNOSUPPRESSIVE COMPOUNDS” (UNIVERSITÄT BASEL, priority 2022, published 2026).

“Also recorded” adds a separate entry of the source.

In one data set the test system is CMV promoter. Put plainly: EC50 analysis for CMV promoter driven RFP inhibition (non-specific activity) by flow cytometry in RBL cells. The data set is classed as cell-based, cytomegalovirus. To be noted: 48-65 h, read-out: EC50 RFP alteration. The method, then: RBL cells expressing GFP under coronin 1 promoter and optionally with RBL cells expressing RFP under CMV promoter were mixed in equal numbers and incubated with the compounds at indicated concentrations for 48-65 h and analyzed by flow cytometry for alteration in coronin 1 promoter (GFP fluorescence), CMV promoter (RFP fluorescence) values. In addition, the cells were labelled with live-dead marker for assessing cell viability status by flow cytometry. Cycloheximide (CHX) serves as positive control and DMSO serves as negative controls. Effective Concentration (EC50) values for coronin 1 promoter inhibition via GFP fluorescence analysis, non-specific promoter inhibition via CMV promoter driven-RFP fluorescence analysis and cell viability via live/dead staining as a measure for toxicity in flow cytometry for compounds (10-22 and 50a-65a) are shown in Table 6 and Table 7. Based on the EC50 analysis of the inhibition of coronin 1 promoter driven GFP fluorescence the (4S,7R)-configurated eutomers were identified (Structures FIG. 9A-C). This is exemplified for compounds containing two stereocenters by eutomers 11c and 13a. […] Subsequent EC50 evaluations (Table 7) were performed with compound 13a as standard for relative potency normalized to a value of 1.00 (relative potency calculated as [EC50 GFP inhibition 13a]/[EC50 GFP inhibition compound of interest]).

Data set [1] deals with early cytomegalovirus promoter. Put plainly: Screening assay control: CMV promoter driven RFP in RBL cells (microplate reader). Particulars: 5 μg/ml, 48 h, microplate reader, DMSO = 100, read-out: RFP values (%). The data set is classed as cell-based. The method, then: As an unrelated promoter, the early cytomegaloviral promoter element was cloned into a promoterless Red Fluorescence Protein (RFP) expression plasmid. Rat Basophil Leukemia (RBL) cells were transfected with the plasmid, stable RFP expressing cells enriched, incubated with various compounds and were assessed for red fluorescence values. Analyzing the inhibition of an unrelated promoter (in this case, early cytomegalovirus promoter) that drove Red Fluorescence Protein (RFP) expression assessed non-specificity of the compound under analysis.
The plasmids were independently transfected into immune cells (Rat basophil Leukemia, RBL cells) to generate green and red fluorescent RBL cells that were subsequently enriched by means of flow cytometry. These cells were then mixed in equal ratio (1:1) and incubated in a 96 well plate at 100,000 cells/well in a volume of 200 μl of phenol red free RPMI supplemented with 8% fetal calf serum, L-glutamate and antibiotics (penicillin, streptomycin) and various compounds (3 and 5 μg/ml concentrations) from available chemical libraries. At defined time points (8 h, 24 h and 48 h), the GFP and RFP fluorescence was measured using a 96 well microplate reader (Synergy, BioTek Instruments). […] Selected compounds show different levels of modulation of coronin 1 promoter driven GFP and CMV promoter driven RFP fluorescence. GFP and RFP fluorescence were analyzed with a microplate reader upon incubation with the top coronin 1 promoter inhibiting compounds. Shown are percentage of GFP reduction (left column) and percentage of RFP reduction (right column) for the compounds at 5 μg/ml concentration at 48 h. Cycloheximide (CHX) serves as positive control whereas media and DMSO serve as negative controls. […] Cells were imaged using a fluorescence microscope to validate fluorescence inhibition (FIG. 3A) and as well assess morphology and viability (in addition to GFP down regulation confirmation). In addition, quantitative Polymerase Chain Reaction (qPCR) for coronin 1 mRNA transcripts reveal reduction with compound 11 (FIG. 3B). The primers used for the qPCR on RBL cells are listed below as follows;

Data set [2] has as its system RBL cells. Put plainly: Cell viability by live-dead staining (cytotoxicity), flow cytometry. To be noted: Rattus norvegicus, RBL, cell viability via live/dead staining, 48-65 h, read-out: EC50 Toxicity. The data set is classed as cell-based, Rat. The essentials: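 RBL cells with coronin 1 promoter-GFP, mixed 1:1 with CMV promoter-RFP RBL cells, exposed to compound 48-65 h. Flow cytometry read RFP fluorescence for non-specific promoter inhibition and live-dead staining for cytotoxicity. EC50 values derived; cycloheximide positive control, DMSO negative.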

A short description of data set [3]: In vivo toxicity: hematological parameters (ADVIA) and body weight. Particulars: 150 mg/kg/body weight, BD, IP, six-day administration. The procedure:
Coronin 1 expression inhibitor (compound 11) was initially dissolved in DMSO at 100 mg/ml concentration. In parallel, a 50:50 solution of miglyol 812 and kolliphor EL (M+K) was prepared. Coronin 1 expression inhibitor: M+K was mixed at a ratio of 30:70 and vortexed for 5 minutes to make a homogenous suspension such that a final concentration of 30 mg/ml was obtained. 100 μl/mouse was subsequently administered either intraperitoneally or subcutaneously using an insulin syringe. The mice used for the study were separated into age and sex matched cohorts, weighed prior to start of the study and regularly monitored for body weight, behavioural changes, fur changes, faecal consistency and urine colour. […]

For data set [4], the system named is human PBMCs (CD4 and CD8 T cells). Description: Proinflammatory cytokine production in human PBMCs after CD3/CD28 stimulation, flow cytometry. The data set is classed as cell-based. To be noted: 10 μg/ml, 4.5 days, CD3 and CD28 antibodies. The method, then: Heparinized or EDTA treated blood or buffy coat from healthy volunteers were enriched for monocytes using the standard Histopaque 1.077 gradient centrifugation methodology. Post enrichment, the monocyte fraction was washed extensively with plain RPMI and subsequently counted and seeded in 96 well plate at a density of 0.2 million cells/well in a volume of 200 μl RPMI-1640 (Sigma) containing 1× penicillin and streptomycin (Gibco), 2 mM L-glutamine (Gibco), 10% heat inactivated FCS (PAA) and heparin 50 units/ml along with the vehicle (DMSO) or coronin 1 inhibitor at indicated concentrations. Cells were incubated in a 37° C. humidified incubator with a 5% CO2 for five days with the expression inhibitor and vehicle replenished in between at 48 hours post seeding by replacing 50% of the media. Subsequently, the cells were assessed for coronin 1 down regulation by Western blotting (FIG. 8A) and in parallel stimulated with anti-CD3 (2 μg/ml) and anti-CD28 (10 μg/ml) antibodies overnight and treated with brefeldin A for a duration of 4 h and subjected to surface staining (for CD3, CD4, CD8 and CD19) along with live-dead marker and fixed with 4% formaldehyde, permeabilized with 0.1% saponin and subjected to intracellular staining for interleukin-2 (FIG. 8B,C).

For data set [5], the system named is RBL cells. Put plainly: In vitro toxicity, Alamar blue assay. Type of data set: cell-based, Rat. The procedure:
In vitro cytotoxicity tests were performed using Alamar blue (Invitrogen, USA) following manufacturers protocol. In brief, RBL cells pretreated with coronin 1 expression inhibitor or vehicle controls were reseeded and cultured in a 96-well plate at a concentration of 1×10^4 cells/ml of culture media. Alamar blue was added to the wells and further incubated at 37° C. for 4 h. The absorbance was measured at 600 nm using a microplate reader (Synergy, BioTek Instruments). DMSO and cycloheximide served as the vehicle and positive control respectively (FIG. 5A).

The next data set concerns coronin 1 promoter. Put plainly: EC50 analysis for coronin 1 promoter driven GFP inhibition by flow cytometry in RBL cells. The data set is classed as cell-based. To be noted: RBL, RBL cells, 48-65 h, flow cytometry. The essentials: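 RBL cells carrying coronin 1 promoter–GFP, mixed with CMV promoter–RFP cells, exposed to compounds 48–65 h and analyzed by flow cytometry with live/dead staining. EC50 derived from GFP inhibition, with RFP and viability as nonspecific and toxicity counter-reads; cycloheximide and DMSO as controls, relative potency normalized to a reference compound.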

Consider `COC(=O)C1=C(C)NC2=C(C(=O)CC(c3ccccc3OC)C2)C1c1cccc(O)c1` (stereo not shown) [Comp. 11, methyl-4-(3-hydroxyphenyl)-7-(2-methoxyphenyl)-2-methyl-5-oxo-1,4,5,6,7,8-hexahydro-3-quinolinecarboxylate], for which the EC50 in the data set with CMV promoter was greater than 9 µM; in the data set with RBL cells [2], greater than 9 µM; in the data set on coronin 1 promoter, 1.2 µM. The activity at 5 µg/mL in data set [1] turned out to be 111%. Further, the “in vivo toxicity: hematological parameters (RBC, WBC, platelet counts, hemoglobin), body weight” value in data set [3] is “did not reveal any potential toxicity; also recorded: good safety and tolerability”. Further, the “production of interleukin-2 (IL-2) in CD4 and CD8 T cells post T cell receptor stimulation” value in data set [4] is listed as “attenuates immune responses”. For the same compound, the “in vitro toxicity by Alamar blue assay” value in the data set with RBL cells [5] was “minimal toxicity”.
